Laboratory results published in the supplement of paper PMC10290057.
Where a name gives a salt, the structure may show the parent alone.

Legend:
HCT116 [1] = assay: AC50 cell viability (CellTiter-Glo); higher = less potent; details: 48 h
HCT116 [2] = assay: efficacy (fitted maximal change in viability relative to DMSO control); higher = less cytotoxic (negative = loss of viability); details: 48 h
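Wherever AC50 cell viability (CellTiter-Glo) is given: HCT116 colorectal carcinoma cells screened at five concentrations per compound, luminescent viability scaled between DMSO wells and empty wells on each plate, curves fitted per compound.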
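Wherever efficacy (fitted maximal change in viability relative to DMSO control) is given: Luminescence-based viability readout, five doses per compound, normalized against on-plate DMSO and empty-well controls, followed by dose-response curve fitting for every drug.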

Row | Compound | AC50 cell viability (HCT116 [1]) [µM] | efficacy (HCT116 [2]) [%]
1 | Cn1cc(-c2cnn3c(N)c(Br)c(C4CCCNC4)nc23)cn1 (stereo not drawn) [MK-8776] | 10.5 | -113
2 | Cn1ncc(Cl)c1-c1cc(C(=O)N[C@H](CN)Cc2cccc(F)c2)sc1Cl | 14.8 | -103
3 | CC(NC1=NC=NC2=C1[NH]C=N2)\C3=C\C4=C(C(=CC=C4)Cl)C(=O)N3C5=CC=CC=C5 (stereo not drawn) [IPI-145] | 14.8 | -58.5
4 | O=C(NCCCNc1nc(Nc2cccc(CN3CCOCC3)c2)ncc1C1CC1)C1CCC1 | 16.6 | -96.5
5 | O=C(c1ccc(Nc2nc(C3CC3)cn3c(-c4cn[nH]c4)cnc23)c(F)c1)N1CCOCC1 [P21d hydrochloride] | 14.8 | -86.2
6 | CCN1CCN(Cc2ccc(-c3cc4c(N[C@H](C)c5ccccc5)ncnc4[nH]3)cc2)CC1 [AEE-788] | 16.6 | -97.5
7 | CO[C@H]1C[C@H]2OC[C@@]2(OC(C)=O)[C@H]3[C@H](OC(=O)C4=CC=CC=C4)[C@]5(O)C[C@H](OC(=O)[C@H](O)[C@@H](NC(=O)OC(C)(C)C)C6=CC=CC=C6)/C(=C(/[C@@H](OC)C(=O)[C@]13C)C5(C)C)C [Cabazitaxel] | 0.00263 | -57.4
8 | Cc1c(C)c2c(c(C)c1O)CCC(C)(COc1ccc(CC3SC(=O)NC3=O)cc1)O2 (stereo not drawn) [Troglitazone] | 18.6 | -55.1
9 | CC[C@@H](C)Nc1cc(C(=O)NC2CC3CC[C@@H](C2)N3c2ccc(C(=O)C3CC3)cn2)c(C)cc1C(N)=O (stereo partly drawn) [XL-888] | 0.0833 | -59.7
10 | c1ccc2c(Oc3nc(Nc4ccc(N5CCOCC5)cc4)c4ncn(C5CCCCC5)c4n3)cccc2c1 [Purmorphamine] | 11.8 | -34.8
11 | Oc1ccc(-c2nc(-c3ccncc3)c(-c3ccc(F)cc3)[nH]2)cc1 | 23.5 | -80
12 | OCCC#Cc1nc(-c2ccc(F)cc2)c(-c2ccncc2)n1CCCc1ccccc1 | 23.5 | -64.2
13 | CCCCc1oc2ccccc2c1C(=O)c1cc(I)c(OCCN(CC)CC)c(I)c1 [Amiodarone hydrochloride] | 23.5 | -71.8
14 | Cc1nnn(C)c1-c1cnc2c3ccc(C(C)(C)O)cc3n([C@H](c3ccccc3)C3CCOCC3)c2c1 | 0.0186 | -82.9
15 | CC(C)COCC(CN(Cc1ccccc1)c1ccccc1)N1CCCC1 (stereo not drawn) [Bepridil] | 16.6 | -104
16 | CN[C@H]1CCC2=CC(=C(OC)C(=C2C/3=C/C=C(OC)\C(=O)/C=C13)OC)OC [Demecolcine] | 0.059 | -62.6
17 | C[C@@H]1CC[C@@]2(OC1)O[C@H]3C[C@H]4[C@@H]5C/C=C6/C[C@H](CC[C@]6(C)[C@H]5CC[C@]4(C)[C@H]3[C@@H]2C)O[C@@H]7O[C@H](CO)[C@@H](O[C@@H]8O[C@@H](C)[C@H](O)[C@@H](O)[C@H]8O)[C@H](O)[C@H]7O[C@@H]9O[C@@H](C)[C@H](O)[C@@H](O)[C@H]9O [Dioscin] | 5.25 | -101
18 | CNCCCOc1cc(F)c(-c2c(Cl)nc3ncnn3c2N[C@@H](C)C(F)(F)F)c(F)c1 [Cevipabulin] | 0.0525 | -60.6
19 | O=C(Nc1cccnc1)N1CCC(Cc2cccc(Oc3ccc(C(F)(F)F)cn3)c2)CC1 [PF-3845] | 13.2 | -82.1
20 | O=C(CCNC(=O)c1ccc(OC(F)(F)F)cc1)N[C@@H]1CCCc2ccccc21 [ML-390] | 0.742 | -57.7

Row | Compound | AC50 cell viability (HCT116 [1]) [µM] | efficacy (HCT116 [2]) [%]
21 | CN(C)C1=CC=C(C=C1)C(C2=CC=C(C=C2)N(C)C)=C/3\C=C/C(/C=C3)=[N+](C)C [Methylrosaniline chloride] | 0.833 | -84.9
22 | Cc1c(C(=O)Nc2ccc(N3C[C@@H](C)O[C@@H](C)C3)nc2)cccc1-c1ccc(OC(F)(F)F)cc1 [Sonidegib] | 20.9 | -74.9
23 | CO[C@@H]1C(N(C)C(=O)c2ccccc2)C[C@H]2O[C@]1(C)n1c3ccccc3c3c4c(c5c6ccccc6n2c5c31)C(=O)NC4=O (stereo partly drawn) [Stauprimide] | 1.66 | -50
24 | Nc1ccc(C(=O)c2cc3c(ccc4ccccc43)[nH]2)cc1 [IPFK2] | 4.81 | -102
25 | COc1cc2c(NC3CCN(C(C)C)CC3)nc(C3CCCCC3)nc2cc1OCCCN1CCCC1 [UNC-0638] | 8.33 | -94.9
26 | Nc1nc(Nc2ccc([S+](N)(=O)[O-])cc2)nn1C(=O)c1c(F)cccc1F | 1.66 | -65.7
27 | CCN(CC)CCNC(=O)c1c(C)[nH]c(/C=C2/C(=O)Nc3ccc(-c4csc(-c5ccccc5)n4)cc32)c1C [Amcasertib] | 20.9 | -99.9
28 | Cc1cccc(CN2CCN(C(c3ccccc3)c3ccc(Cl)cc3)CC2)c1 (stereo not drawn) [Meclizine hydrochloride] | 20.9 | -43.1
29 | CCOC(=O)[C@@]1(CCCCCCOc2ccc(Cl)cc2)CO1 [Etomoxir] | 18.6 | -42.1
30 | COc1cc(-c2cc(-c3ccc(N4CCNCC4)cc3)cnc2C)cc(OC)c1OC | 9.34 | -57.2
31 | C=CC(=O)Nc1ccc2ncnc(Nc3cccc(Br)c3)c2c1 | 13.2 | -86.8
32 | CCCCCCNC(=O)N1\C=C(F)/C(=O)NC1=O [Carmofur] | 4.17 | -61.6
33 | CC(O)(C#Cc1ccc2c(c1)N(c1nc(N)ncc1Cl)CC2)c1nccs1 (stereo not drawn) | 16.6 | -76.1
34 | C[C@H](NC1=C2N=C[NH]C2=NC=N1)C/3=C/C4=C(C(=CC=C4)Cl)C(=O)N3C5=CC=CC=C5 [Duvelisib] | 18.6 | -72
35 | Cc1cc(Nc2ncc(Cl)c(Nc3ccccc3[S+](=O)([O-])C(C)C)n2)c(OC(C)C)cc1C1CCNCC1 [Ceritinib] | 13.2 | -115
36 | NC(=O)c1cccc(-c2cc(Nc3ccc(OC(F)(F)F)cc3)ncn2)c1 [GNF-2] | 18.6 | -97.5
37 | COC1=C(NC2=NC=C(Cl)C(=N2)N[C@@H]3[C@H]\4C[C@@H](\C=C4)[C@H]3C(N)=O)C=CC5=C1CCC(CC5)N6CCOCC6 (stereo partly drawn) | 4.17 | -74.2
38 | Nc1nccn2c1c(-c1cc3cccc(Cl)c3[nH]1)nc2[C@H]1CC[C@H](C(=O)O)CC1 [OXA-01] | 9.34 | -65.8
39 | F\C1=C\NC(=O)NC1=O [Fluorouracil] | 10.5 | -64.4
40 | CN(C)Cc1c(C(=O)NCCOc2ccc(C(=O)NO)cc2)oc2ccccc12 [Abexinostat] | 0.263 | -91.9

Row | Compound | AC50 cell viability (HCT116 [1]) [µM] | efficacy (HCT116 [2]) [%]
41 | COc1cc(N2CCC(N)CC2)ccc1Nc1ncc(Cl)c(-c2c[nH]c3ccccc23)n1 [AZD-3463] | 5.9 | -137
42 | CCN1C(=O)\C(=C/C2=CN=C(NC3=CC=C(C=C3)N4CCN(C)CC4)N=C12)C5=C(Cl)C=C(C=C5)C6=CN=CS6 [FRAX-597] | 5.9 | -59
43 | Cn1ncc(Cl)c1-c1cc(C(=O)NC(CN)Cc2ccc(F)c(F)c2)oc1Cl (stereo not drawn) | 13.2 | -117
44 | O=C1NC(=O)/C(=C/c2ccc3nccc(-c4ccncc4)c3c2)S1 [GSK-615] | 0.934 | -82.3
45 | Cc1ccccc1C(=O)c1ccc(Nc2ccc(Br)cc2N)cc1Cl [EO-1428] | 20.9 | -75.8
46 | CN(C)C(=O)c1ccc([S+](=O)([O-])c2ccc(NC(=O)[C@@](C)(O)C(F)(F)F)c(Cl)c2)cc1 [AZD-7545] | 5.9 | -33.1
47 | CN(C)Cc1ccc(-c2nc3cccc4c3n2CCNC4=O)cc1 | 5.9 | -65.6
48 | COc1ccccc1N1CCN(CC(O)COc2cccc3ccccc23)CC1 (stereo not drawn) [Naftopidil] | 18.6 | -57.2
49 | CC(C)OC1=C(F)C=C(C=C1)C2=N[N]([C@@H](C)C/3=C(C4=CC(=CC=C4)F)/C(=O)C5=CC(=CC=C5O3)F)C6=C2C(=NC=N6)N [Umbralisib] | 14.8 | -35.3
50 | COc1cccc([C@@H](C)NCCCc2ccccc2Cl)c1 [NPS-R568] | 23.5 | -99.8
51 | C=C1[C@H](OC(=O)/C=C(\C)CC)C[C@@H](C(C)C)[C@@H]2[C@H]([C@@H](C)OC(C)=O)C(=O)C[C@@H]12 [Tussilagone] | 20.9 | -67.9
52 | Oc1cc(-c2nc(-c3ccccc3)[nH]c2-c2ccncc2)ccc1Cl | 4.17 | -90.3
53 | FC(F)c1nc2ccccc2n1-c1nc(N2CCOCC2)nc(N2CCOCC2)n1 [ZSTK-474] | 0.742 | -58.2
54 | Cc1c[nH]c(-c2cnc(NCCNc3ccc(C#N)cn3)nc2-c2ccc(Cl)cc2Cl)n1 | 26.3 | -72.6
55 | CCOC1=CC=CC=C1N\2C(=O)C3=C(C=CC=C3)\N=C2C(C)N4CCN(CC4)C(=O)COC5=CC=C(Cl)C=C5 (stereo not drawn) [Erastin] | 3.32 | -70.4
56 | COc1cc2nccc(Oc3ccc(NC(=O)Nc4ccc(F)cc4F)c(F)c3)c2cc1OC [KI-8751] | 2.09 | -47.4
57 | O=C(c1ccc(Nc2nccc(-c3cc4ccccc4s3)n2)cc1)N1CCC(N2CCCC2)CC1 [IKK-16] | 6.61 | -106
58 | COc1cc2ncnc(Nc3cccc(Cl)c3)c2cc1OC [AG-1478] | 23.5 | -91.8
59 | C[C@@H](NC1=CC=CC=C1C(O)=O)C/2=C/C(=C\N3C(=O)/C=C(\N=C23)N4CCOCC4)C [AZD-6482] | 10.5 | -52.7
